Structures can show the parent of a compound that is named as a salt. Where two headings read alike, the source gives them in different places.
How the values were obtained:
Human SSAO/VAP-1 = biological target: T1, Human SSAO/VAP-1 (Homo sapiens, UniProt Q16853); experiment: Inhibition of amine oxidase activity of purified human SSAO/VAP-1 (Amplex Red); type: biochemical; conditions: purified human SSAO, 300 μM benzylamine
T1 sequence (Q16853 1-763): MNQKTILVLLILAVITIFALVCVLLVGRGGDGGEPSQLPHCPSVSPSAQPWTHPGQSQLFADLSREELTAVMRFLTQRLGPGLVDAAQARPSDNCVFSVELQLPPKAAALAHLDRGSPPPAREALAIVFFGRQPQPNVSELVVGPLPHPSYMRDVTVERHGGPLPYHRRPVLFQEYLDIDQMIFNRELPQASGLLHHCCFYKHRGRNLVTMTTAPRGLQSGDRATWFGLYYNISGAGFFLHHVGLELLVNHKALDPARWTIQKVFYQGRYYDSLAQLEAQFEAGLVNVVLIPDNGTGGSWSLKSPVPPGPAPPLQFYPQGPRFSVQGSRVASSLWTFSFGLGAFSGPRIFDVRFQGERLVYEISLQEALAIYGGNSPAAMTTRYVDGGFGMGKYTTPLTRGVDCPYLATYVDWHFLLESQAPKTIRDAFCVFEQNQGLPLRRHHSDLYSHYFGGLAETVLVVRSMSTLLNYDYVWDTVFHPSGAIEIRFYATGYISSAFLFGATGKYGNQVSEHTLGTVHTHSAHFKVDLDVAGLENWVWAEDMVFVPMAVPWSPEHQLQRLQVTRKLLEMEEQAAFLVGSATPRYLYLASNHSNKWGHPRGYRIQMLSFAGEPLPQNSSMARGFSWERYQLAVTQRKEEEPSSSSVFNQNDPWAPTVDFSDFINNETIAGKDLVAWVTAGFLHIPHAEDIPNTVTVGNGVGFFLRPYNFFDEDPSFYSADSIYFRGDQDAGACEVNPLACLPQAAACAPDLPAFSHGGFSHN
Procedure: To measure the SSAO activity, adipocyte homogenate (0.5 mg/mL) or adipocytes (adhering cells) containing 0.5 mM pargyline, or purified human SSAO was incubated in 0.1 M sodium phosphate buffer pH 7.4 with varying concentrations of test compounds for 30 min at 37° C. The homogenate was then incubated at 37° C. with 60 μM Amplex® Red, 0.75 U/mL HRP and 40 μM benzylamine (mouse SSAO) or 300 μM benzylamine (human SSAO) and the formation of resorufin was measured (excitation range 530-560 nm and emission at 590 nm) every 10 min in either a Tecan Infinite 200 or a BMG plate reader. The IC50 values were estimated using Graphpad Prism software. The IC50 is an estimation of the concentration of the test compound to inhibit the amine oxidase activity of SSAO/VAP-1 by 50%. The IC50 values of certain invention compounds are included in Table 1.

SSAO/VAP-1 = biological target: T2, SSAO/VAP-1 (Mus musculus, UniProt O70423); experiment: In vivo inhibition of SSAO/VAP-1 activity in mouse genital fat; set-up: species or system BALB/C mice; conditions: ip
T2 construct: the genital fat was excised and frozen; The tissue was homogenized; from tissue; host or cells: genital fat of BALB/C mice
T2 sequence (O70423 1-765): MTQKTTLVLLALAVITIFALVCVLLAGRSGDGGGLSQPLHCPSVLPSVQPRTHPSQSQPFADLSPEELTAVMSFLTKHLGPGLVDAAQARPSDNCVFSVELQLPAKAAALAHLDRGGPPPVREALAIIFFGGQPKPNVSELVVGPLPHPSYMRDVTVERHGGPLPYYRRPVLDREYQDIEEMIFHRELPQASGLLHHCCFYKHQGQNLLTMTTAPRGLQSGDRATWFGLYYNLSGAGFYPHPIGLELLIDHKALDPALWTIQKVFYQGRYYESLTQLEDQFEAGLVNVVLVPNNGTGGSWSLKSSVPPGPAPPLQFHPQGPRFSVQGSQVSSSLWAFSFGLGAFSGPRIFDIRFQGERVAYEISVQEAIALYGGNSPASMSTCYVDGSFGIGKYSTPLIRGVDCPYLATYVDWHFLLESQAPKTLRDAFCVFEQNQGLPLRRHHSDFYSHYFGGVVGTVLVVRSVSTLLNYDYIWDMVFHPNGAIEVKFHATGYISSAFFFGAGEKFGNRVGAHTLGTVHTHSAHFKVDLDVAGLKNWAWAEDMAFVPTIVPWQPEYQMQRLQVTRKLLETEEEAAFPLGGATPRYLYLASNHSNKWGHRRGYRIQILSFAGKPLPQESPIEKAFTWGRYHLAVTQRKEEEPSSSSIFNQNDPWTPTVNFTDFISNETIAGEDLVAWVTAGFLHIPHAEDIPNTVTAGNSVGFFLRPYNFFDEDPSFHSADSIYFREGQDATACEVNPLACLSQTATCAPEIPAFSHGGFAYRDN
Procedure: In vivo inhibition was assessed in mouse genital fat, a tissue with high SSAO/VAP-1 expression. 10 BALB/C mice (5 males and 5 females) were administered 0 mg/kg, 10 mg/kg, 30 mg/kg or 100 mg/kg SSAO/VAP-1 inhibitor by intraperitoneal injection. Two hours after administration the mice were sacrificed and the genital fat was excised and frozen. The tissue was homogenized in 0.01 M sodium phosphate buffer pH 7.4 (10 mL/g) and used to measure SSAO activity using Amplex® Red. ED50 was estimated Using Graphpad Prism software.

[1] = test system: LPS-induced pulmonary inflammation; conditions: cited from earlier work
[2] = test system: experimental autoimmune encephalomyelitis; conditions: reported in US 2006/0025438 A1; cited from earlier work
[3] = female BALB/C mice, intraperitoneal, genital fat SSAO activity two hours after administration, read-out: Female Mice ED50 [ip]
[4] = male BALB/C mice, intraperitoneal, genital fat SSAO activity two hours after administration, read-out: Male Mice ED50 [ip]

Structure (SMILES)	IC50 (Human SSAO/VAP-1; 30 min at 37° C. preincubation) [µM]	ED50 (SSAO/VAP-1; [3]) [mg/kg]	ED50 (SSAO/VAP-1; [4]) [mg/kg]	ED50 (SSAO/VAP-1; read-out: Female Mice ED50 [ip]) [mg/kg]	ED50 (SSAO/VAP-1; read-out: Male Mice ED50 [ip]) [mg/kg]	IC50 (Human SSAO/VAP-1) [µM]	BAL cell counts ([1]; mouse overexpressing human SSAO/VAP-1, LPS)	LPS-induced increase in TNF-a ([1]; mouse overexpressing human SSAO/VAP-1)	Inhibition of experimental autoimmune encephalomyelitis [2]
C[C@H](NS(=O)(=O)c1ccc(OC/C(F)=C\CN)cc1)c1ccccc1.Cl [(S,E)-4-(4-Amino-2-fluorobut-2-enyloxy)-N-(1-phenylethyl)benzenesulfonamide]	< 1	< 50	< 50						
Cc1nc2cc(OC/C(F)=C\CN)ccc2s1.Cl [(E)-3-Fluoro-4-(2-methylbenzo[d]thiazol-5-yloxy)but-2-en-1-amine hydrochloride]	< 1	< 100	< 50						
NC/C=C(/F)COc1ccc(C(=O)NC2CCCCC2)cc1 [(E)-4-(4-amino-2-fluorobut-2-enyloxy)-N-cyclohexylbenzamide hydrochloride]	< 1			< 50	< 50				
CS(=O)(=O)c1ccc(OC/C(F)=C\CN)cc1.Cl [(E)-3-Fluoro-4-(4-(methylsulfonyl)phenoxy)but-2-en-1-amine hydrochloride]	< 1	< 300	< 100						
NC/C(=C/F)CCc1ccc(F)cc1 [Mofegiline, reference compound]		< 1	< 1			0.021	significantly reduces	significantly attentuates	inhibit experimental autoimmune encephalomyelitis

Reference: patent US8426587B2, “Haloallylamine inhibitors of SSAO/VAP-1 and uses therefor” (Pharmaxis Ltd., priority 2007, dated 2013)
